Among the data in PubChem BioAssay AID463204 (Broad Institute, 2010) are AC50 values, retold here.

Each structure is given as a SMILES string. The source made the active and inactive calls.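 The calls were made as follows: active = AC50 no more than ten times the top concentration tested, that is within one log above it; inconclusive = flat curve fit with activity between 30% and 70%, or invalid poor fit; inactive = AC50 beyond ten times the top tested dose.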

The test system of this assay is S. cerevisiae Mot1-301 ts growth rescue, BacTiter-Glo ATP luminescence. The assay is described as follows: restored Mot1-301 yeast growth at 38.5C – whole organism, S. cerevisiae, Mot1-301 ts mutant, luminescence, dose retest, SUMOylation pathway inhibitor project, confirmation (AID 463204).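 Also: growth at restrictive 38.5 degrees C of Mot1-301 OY566 strain; actives raise luminescence by restoring growth of the ts mutant at high temperature.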
For `Cn1c(-c2sc3cc(C(F)(F)F)cnc3c2-c2cccs2)n[nH]c1=S`, the AC50 (as a rule, the concentration giving half of the maximal activity seen) is > 42 µM (inactive).
The same measure for `Cc1cc(C)c(NC(=O)CCN2CCN(Cc3ccccc3)CC2)c(C)c1`: > 42 µM (inactive).
As for `COc1ccc(S(=O)(=O)N2CCCOC2CNC(=O)C(=O)NCCCN2CCOCC2)cc1C` (centres undefined), the figure is > 42 µM (inactive).
The same measure for `Cc1cccc(N2C(=O)CSC2c2cccnc2)c1` (centres undefined): > 42 µM (inactive); for `Cc1ccccc1-n1c(-c2cccnc2)n[nH]c1=S`: > 42 µM (inactive); for `CC(C)c1ccc2c(c1)CCC1C(C)(CN)CCCC21C` (centres undefined): 14.3 µM.
`O=c1cnc2cc([N+](=O)[O-])ccc2[nH]1`: the AC50 was > 42 µM (inactive).
As for `CC(C)(C)NC(=O)C(c1cccs1)N(Cc1cccs1)C(=O)c1ccc(CN2CCOCC2)o1` (centres undefined), the figure is > 42 µM (inactive); as for `COCCn1c(SCC(=O)Nc2nc3ccccc3s2)nnc1-c1ccoc1C`, > 42 µM (inactive).
As for `COC(=O)C12CCC3(SCCS3)C(C(=O)OC)(CCC13SCCS3)C2`, the figure is 7.24 µM; as for `CC(CN1CCCCCC1)C(=O)NN` (centres undefined), > 42 µM (inactive).
As for `Cn1cnnc1-c1cccc(NS(=O)(=O)c2ccc(N3CCCC3=O)cc2)c1`, the figure is > 42 µM (inactive).
In the case of `CCOC(=O)c1cccc(NC(=O)C2CCCN(S(=O)(=O)c3c(C)n[nH]c3C)C2)c1` (centres undefined), the AC50 is > 42 µM (inactive).
Consider `COc1cc([N+](=O)[O-])cc(/C=N/NC(=O)c2cc(C)nc3ccccc23)c1O`, for which the AC50 is > 42 µM (inactive).
The same measure for `CC(=O)NCCc1nc2cc(NC(=O)c3ccc(F)cc3)ccc2n1C`: > 42 µM (inactive); for `CCc1nn(C)c(N)c1C`: > 42 µM (inactive); for `CC(=O)c1cccc(NC(=O)CNC(=O)c2sc3ccccc3c2Cl)c1`: > 42 µM (inactive).
`O=C(Nc1ccc(F)cc1)c1cccnn1`: the AC50 is > 42 µM (inactive).
The same measure for `O=C(NC1CCCCC1)c1ccc2snnc2c1`: > 42 µM (inactive); for `Cc1cccc(OCc2nnc(SCC(=O)O)n2-c2ccccc2)c1`: > 42 µM (inactive); for `COc1ccccc1/C=C/C(=O)c1c2c(c(C)[nH]c1=O)CCCC2`: > 42 µM (inactive).
The same measure for `CCOC(=O)C1CCN(C(=O)COc2ccc(S(=O)(=O)N3CCOCC3)cc2C)CC1`: > 42 µM (inactive).
As for `COc1ccc(Nc2cc(NCCCO)c([N+](=O)[O-])c3nonc23)cc1`, the figure is > 42 µM (inactive); as for `O=C(Nc1ncccn1)c1ccc(C(F)(F)F)cc1`, > 42 µM (inactive).
For `COc1cccc(/C=C/C(=O)OCC(=O)Nc2ccc(Cl)cn2)c1`, the AC50 is > 42 µM (inactive).
The same measure for `COc1ccc2cc3c(N)nn(C(=O)c4ccccc4Cl)c3nc2c1`: > 42 µM (inactive); for `CCOc1ccc(Br)cc1CNCCN1CCOCC1`: > 42 µM (inactive); for `O=C(CCN1C(=O)S/C(=C/c2ccccc2)C1=O)Nc1ccc(O)c(C(=O)O)c1`: > 42 µM (inactive).
Take `CC(C)C(=O)Nc1cccc(-c2nc3ncccc3o2)c1`: the AC50 was > 42 µM (inactive).
Turning to `NC(=S)N/N=C/c1cccc(O)c1O`, the AC50 is > 42 µM (inactive).
The same measure for `Cc1ccc(S(=O)(=O)NN2C(=O)c3ccccc3NC2c2ccccc2F)cc1` (centres undefined): > 42 µM (inactive).
As for `O=C(COc1ccc(-n2cnnn2)cc1)NCCc1ccc(F)cc1`, the AC50 is > 42 µM (inactive).
As for `O=S(=O)(Cc1ccccc1)N1CCN(c2ncccn2)CC1`, the figure is > 42 µM (inactive); as for `CC1CC(C)(C)N2C(=O)C3(Nc4ccccc4S3)c3cccc1c32` (centres undefined), 3.15 µM; as for `COc1ccc(-c2csc(NC(=O)CS(=O)(=O)c3ccc(F)cc3)n2)cc1OC`, > 42 µM (inactive).
The same measure for `N#CCN(N=Nc1ccccc1)c1ccccc1`: > 42 µM (inactive).
Take `c1ccc(-c2cc3ccccc3cn2)cc1`: the AC50 is 35 µM.
The same measure for `CC1CN(CCCOc2ccc([N+](=O)[O-])cc2)CC(C)O1` (centres undefined): > 42 µM (inactive).
As for `CCOc1ccccc1CN1CCNC(=O)C1CC(=O)NCCN1CCOC1=O` (centres undefined), the figure is > 42 µM (inactive); as for `CC(=O)c1cccc(NC(=O)CN(c2cccc(F)c2)S(C)(=O)=O)c1`, > 42 µM (inactive); as for `Cc1cc(C)n(-c2ccc(C(=O)C(C#N)c3nc4ccccc4n3C)cc2)n1` (centres undefined), > 42 µM (inactive).
In the case of `Cc1nc2c3ccccc3nc(NNC(=O)CCC(=O)N3CCCC(C)C3)n2n1` (centres undefined), the AC50 was > 42 µM (inactive).
As for `CCOC(=O)c1cc(C#N)c(Oc2ccccc2OC)nc1-c1ccccc1`, the figure is > 42 µM (inactive); as for `O=C(O)C1C(C(=O)O)C2(Cl)C(Cl)=C(Cl)C1(Cl)C2(Cl)Cl` (centres undefined), > 42 µM (inactive).
The same measure for `O=C1CSC(c2ccc(F)c(F)c2)N1c1ccccc1F` (centres undefined): > 42 µM (inactive); for `CCOc1c(Cl)cc(CNCC(O)c2ccccc2)cc1OC` (centres undefined): > 42 µM (inactive); for `CC(C)(C)NC(=O)CC1C(=O)NCCN1Cc1c(F)cccc1Cl` (centres undefined): > 42 µM (inactive).
As for `COc1ccccc1N1CCN(C(=O)C2CCN(S(=O)(=O)c3ccc(C)cc3)CC2)CC1`, the figure is > 42 µM (inactive).
As for `COc1ccc(S(=O)(=O)NCC(=O)N(CC(=O)NCc2ccco2)Cc2ccccc2)cc1`, the AC50 is > 42 µM (inactive).
`COc1ccc2nc(NC(=O)c3cc(S(=O)(=O)N4CCOCC4)ccc3C)sc2c1`: the AC50 was > 42 µM (inactive).
The same measure for `Cc1nc2ccc(S(=O)(=O)NC(CC(C)C)C(=O)O)cc2s1` (centres undefined): > 42 µM (inactive); for `COc1ccccc1CNC(=O)C1CCC(CNS(=O)(=O)c2ccc(C)cc2)CC1` (centres undefined): > 42 µM (inactive).
The same measure for `COc1cc(/C=C(\NC(=O)c2ccccc2)C(=O)Nc2nccs2)ccc1OC(C)=O`: > 42 µM (inactive); for `CC1(C)Cc2nc3sc4c(OCc5ccccc5)ncnc4c3cc2CO1`: > 42 µM (inactive).
For the compound `Cc1cc(C)n(-c2nc3ccccc3nc2N2CCN(C(=O)c3ccccc3)CC2)n1`, the AC50 is > 42 µM (inactive).
As for `CC(C)(C)c1ccc(CN(Cc2ccccc2)C(c2ccccn2)c2nnnn2C(C)(C)C)cc1` (centres undefined), the figure is > 42 µM (inactive).
Regarding `Cc1ccc2c(c1)C(O)(CC(=O)c1cccnc1)C(=O)N2` (centres undefined), the AC50 is > 42 µM (inactive).
As for `O=C(c1ccco1)N1CCN(C(=O)C2Cc3ccccc3CN2S(=O)(=O)c2ccc(F)cc2)CC1` (centres undefined), the figure is > 42 µM (inactive); as for `COc1ccc(CCNC(=O)C/C(C)=N/NC(=O)COc2ccc(C)cc2Br)cc1OC`, > 42 µM (inactive); as for `COc1ccc(/C=N/NC(=O)CCC(=O)Nc2ccccc2)cc1OC`, > 42 µM (inactive).
Consider `O=C(NC1CCCCC1)C(c1ccncc1)N(Cc1ccc2c(c1)OCO2)C(=O)C(F)(F)F` (centres undefined), for which the AC50 is > 42 µM (inactive).
The same measure for `COc1cc(/C=N/NC(=S)NCc2ccco2)cc(OC)c1OC`: > 42 µM (inactive); for `CC1CC(C)(C)NC(=S)N1CC(=O)NCc1ccc(F)cc1` (centres undefined): > 42 µM (inactive).
As for `Cc1cc(C(=O)OCC(=O)Nc2cccc(S(N)(=O)=O)c2)c2ccccc2n1`, the figure is > 42 µM (inactive); as for `Cc1c(C(=O)N2CCN(CCc3ccccc3)CC2)oc2ccccc12`, > 42 µM (inactive); as for `COCCCn1c2nc3ccccc3nc2c2c(=O)n(Cc3ccc(Cl)cc3)cnc21`, > 42 µM (inactive).
As for `COC(=O)c1ccc(CSc2nnnn2-c2ccccc2)o1`, the figure is > 42 µM (inactive).
Take `Nc1nc(CSc2nnnn2-c2ccc(Cl)cc2)nc(N2CCOCC2)n1`: the AC50 was > 42 µM (inactive).
Take `COc1ccc(-c2cc(=O)c3cc(O)ccc3o2)cc1`: the AC50 is > 42 µM (inactive).
The same measure for `Cc1ccc(O)c(CNc2nc3ccccc3n2C)c1`: > 42 µM (inactive); for `Cc1ccc(/C=C/C(=O)O)cc1S(=O)(=O)N(CCO)CCO`: > 42 µM (inactive); for `O=C1CCC(=O)N1CCOP1(=O)COc2ccccc2OC1`: > 42 µM (inactive).
Consider `COc1ccc(OC)c(N(CC(=O)N2CCCC2)S(=O)(=O)c2ccccc2)c1`, for which the AC50 was > 42 µM (inactive).
As for `COc1ccc(CN(CC(=O)NCc2ccco2)C(=O)CCC(=O)Nc2nccs2)cc1`, the figure is > 42 µM (inactive).
As for `CCCCn1c(N)c(N(CC(C)C)C(=O)CSCC(=O)Nc2cccc(C)c2)c(=O)[nH]c1=O`, the AC50 was > 42 µM (inactive).
The same measure for `Nc1cc(Cl)ccc1N1CCOCC1`: > 42 µM (inactive); for `Cc1ccnc(NC(=O)c2ccc(Br)s2)c1`: > 42 µM (inactive); for `CCC(=O)Nc1ccc(S(=O)(=O)NCc2ccco2)cc1`: > 42 µM (inactive).
The same measure for `c1ccc(-c2nc(NCc3ccco3)c3ccccc3n2)nc1`: > 42 µM (inactive); for `Cc1ccc(NC(=S)NNC(=O)c2ccc(N3CCOCC3)c([N+](=O)[O-])c2)cc1C`: > 42 µM (inactive); for `CC1=C(C#N)S(=O)(=O)C(C#N)C(c2ccccc2)C1` (centres undefined): > 42 µM (inactive).
For `COc1cc(NC(=O)CCN2CCN(Cc3ccccc3)CC2)cc(OC)c1`, the AC50 is > 42 µM (inactive).
The same measure for `CSc1ccc(CCNC(=O)C2CCCN(S(=O)(=O)N3CCOCC3)C2)cc1` (centres undefined): > 42 µM (inactive); for `O=C(CSc1nc2ccc(Cl)cc2[nH]1)NCc1ccco1`: > 42 µM (inactive); for `Cc1cc(/C=N/NC(=O)c2ccsc2)c(C)n1-c1cnccn1`: > 42 µM (inactive).
The same measure for `Cc1sc(-n2c(C)cc(C=C3C(=O)NC(=O)NC3=O)c2C)c(C#N)c1C`: > 42 µM (inactive).
For the compound `OCC[C@@H]1C[C@H](O)[C@@H](O)[C@]2(CCc3ccccc3CO2)O1`, the AC50 is > 42 µM (inactive).
The same measure for `COc1cccc(CN2CCN(C(=O)c3cccc4ccccc34)CC2)c1OC`: > 42 µM (inactive).
As for `CC(=O)Cc1nsc(Nc2cccc(C)c2)n1`, the figure is > 42 µM (inactive).
